The results in this text go back to patent US20260200983A1, “USE OF GALR2 AGONISTS TO TREAT GASTROINTESTINAL AND/OR ENDOCRINE DISORDERS” (priority 2022, published 2026).

Experiment [1] has as its target T1, hGALR2 (Homo sapiens, UniProt O43603).
T1 construct: expressed in transfected cells
T1 sequence (O43603 1-387): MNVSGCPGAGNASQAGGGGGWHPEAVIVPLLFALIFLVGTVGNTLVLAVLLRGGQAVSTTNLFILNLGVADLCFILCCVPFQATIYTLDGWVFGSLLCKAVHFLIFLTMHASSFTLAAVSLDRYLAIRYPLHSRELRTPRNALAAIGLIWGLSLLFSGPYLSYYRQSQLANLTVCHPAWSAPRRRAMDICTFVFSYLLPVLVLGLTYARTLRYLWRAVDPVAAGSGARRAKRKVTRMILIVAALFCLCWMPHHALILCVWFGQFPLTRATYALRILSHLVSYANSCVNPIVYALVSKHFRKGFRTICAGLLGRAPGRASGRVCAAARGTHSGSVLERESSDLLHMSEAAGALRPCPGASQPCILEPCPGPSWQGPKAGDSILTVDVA
The experiment in a line: SRE luciferase activity in mGqi-hGALR2-SRE Luc expressing cell lines. It is filed as cell-based. To be noted: read-out: logEC50 (mean ± SEM) (converted). As for the experimental part:
FIG. 11 provides a comparison of the in vitro potency of three different GALR2 agonist peptides with certain amino acid substitutions at the 4th amino acid position. Specifically, the GALR2 agonist peptides were as follows: (1) nWTaNAALYLFGPq-NH2 (D-alanine substitution; triangle), (2) PEG2-NWTeNAALYLFGPq-NH2 (D-glutamic acid; filled circle), and (3) PEG2-NWTrNAALYLFGPq-NH2 (D-arginine; open circle). Potency of the GALR2 agonists was assessed by measuring SRE luciferase activity in mGqi-hGALR2-SRE Luc expressing cell lines treated with the peptides.
In addition to solubility (described above in Example 8), the in vitro potency of the three GALR2 agonist peptides described in Example 7 was next assessed. Specifically, mGqi-hGALR2-SRE Luc expressing cell lines were treated with the different peptides and SRE luciferase activity was measured (as a measure of intracellular activity mediated by the GALR2 agonist peptides).

Experiment [2] relates to OIC mice. The experiment in a line: Colonic transit time (latency to glass bead expulsion) in opioid-induced constipation (OIC) mouse model. It is filed as in vivo. To be noted: 10 mg/kg intraperitoneally, single administration at day 7, positive control (FIG. 5). As for the experimental part:
FIG. 4 provides the overall experimental design in assessing the effects of GALR2 agonists described herein in an opioid-induced constipation (OIC) mouse model. The upward arrows (seven total) represent the daily administration of the GALR2 agonist. The GALR2 agonist that was administered to the relevant groups was pegylated. Control animals received either a vehicle control (negative control) or bisacodyl (positive control). Animals that received a single administration (i.e., at day 7) of naloxone methiodide were also used as a positive control. At 10 minutes post last administration, each of the animals received an administration of morphine (3 mg/kg; subcutaneously). […] Colonic transit time was assessed by measuring the latency to glass bead expulsion by the animals.
FIGS. 9A and 9B show the effect of dosing schedule and administration route on GALR2 agonist-mediated regulation of colonic transit time in OIC mice. […] Colonic transit time was assessed by measuring the latency to glass bead expulsion by the animals. […]
To assess whether the GALR2 agonists described herein could be useful in treating opioid-induced constipation, an OIC mouse model was used. […] Then, a glass bead was rectally inserted, and colonic transit time was assessed by measuring the latency to glass bead expulsion by the animals. […]

Experiment [3] addresses T2, human galanin receptor type 2 (GALR2) (human, UniProt O43603 1-387).
T2 sequence: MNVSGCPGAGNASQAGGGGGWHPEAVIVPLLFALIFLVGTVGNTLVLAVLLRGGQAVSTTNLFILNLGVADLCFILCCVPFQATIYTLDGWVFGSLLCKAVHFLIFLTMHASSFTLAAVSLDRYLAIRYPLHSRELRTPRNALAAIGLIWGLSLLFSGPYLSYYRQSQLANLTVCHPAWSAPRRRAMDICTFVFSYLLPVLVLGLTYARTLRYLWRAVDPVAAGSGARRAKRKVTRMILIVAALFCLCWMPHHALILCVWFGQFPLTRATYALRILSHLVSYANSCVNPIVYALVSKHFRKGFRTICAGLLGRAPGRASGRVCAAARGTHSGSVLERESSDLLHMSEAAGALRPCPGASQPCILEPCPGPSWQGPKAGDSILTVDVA
The experiment in a line: cell-based or functional assay.

Non-standard residues stand in square brackets, D forms with d. Residues, ends and D or L forms follow the SMILES beside them. Primed or numbered codes have the meaning given here. No end group written: not given here. PEG2′ = not defined here

Take `CC(C)C[C@H](NC(=O)[C@H](C)NC(=O)[C@H](C)NC(=O)[C@H](CC(N)=O)NC(=O)[C@@H](C)NC(=O)[C@@H](NC(=O)[C@H](Cc1c[nH]c2ccccc12)NC(=O)[C@H](N)CC(N)=O)[C@@H](C)O)C(=O)N[C@@H](Cc1ccc(O)cc1)C(=O)N[C@@H](CC(C)C)C(=O)N[C@@H](Cc1ccccc1)C(=O)NCC(=O)N1CCC[C@H]1C(=O)N[C@H](CCC(N)=O)C(N)=O` [D-Alanine (SEQ ID NO: 87), nWTaNAALYLFGPq-NH2] (HELM PEPTIDE1{[dN].W.T.[dA].N.A.A.L.Y.L.F.G.P.[dQ].[am]}$$$$V2.0): the EC50 in experiment [1] was 44.7 nM. As for `C=CC[N+]1(C)CC[C@]23c4c5ccc(O)c4O[C@H]2C(=O)CC[C@@]3(O)[C@H]1C5` (stereo partly drawn) [naloxone methiodide, reference compound], the colonic transit time result in experiment [2] was “decrease in colonic transit time”. [PEG2′]NWT[dR]NAALYLFGP[dQ]-NH2 [PEG2-NWTrNAALYLFGPq-NH2 ([PEG-dR4-dQ14]-GALR2 Agonist, SEQ ID NO: 89)]: the “EC50 fold change against the D-alanine peptide, SRE luciferase activity” value in experiment [3] was about 3.5 fold.
